# Reference: patent US20230293628A1, “MEANS AND METHODS FOR TREATING BACTERIAL INFECTIONS” (priority 2016, published 2023)
# Where two headings read alike, the source gives them in different places. Where no end group is shown, it is not given here.
# Experiments:
# [1] = test system: Escherichia coli ESBL (CUN E20)
# [2] = test system: monocyte-derived dendritic cells (MoDCs); assay: LPS-stimulated monocyte-derived dendritic cells: maturation, migration, IL-6; assay type: cell-based
# From the text: In monocyte-derived dendritic cells (MoDCs), Pep19-2.5 inhibited LPS-mediated upregulation of the maturation marker CD83 and the co-stimulatory molecule CD80 at a peptide:LPS weight ratio of 1000:1.
# (§1) The potential of Peptide 19-2.5 and the structurally related compound Peptide 19-4LF has been investigated for their therapeutic application in bacterial skin infections. Primary human keratinocytes responded to TLR2 (FSL-1) but not TLR4 (LPS) activation by increased IL-8 production which was determined with ELISA. […] To detect phosphorylation of the intracellular proteins Western Blot was performed. Gene expression was evaluated by quantitative real-time PCR. […] In addition to acute inflammation, bacterial infections often result in impaired wound healing. Since re-epithelialization is a critical step in wound repair, we tested whether Peptide 19-2.5 affects keratinocyte migration.
# [3] = test system: TLR2/6-activated keratinocytes; assay: FSL-1 (TLR2/6)-activated keratinocytes: IL-8 ELISA, Western Blot, real-time PCR; assay type: cell-based, human; settings: FSL-1 stimulation, 10:1 weight ratio
# Procedure: Thus, the effect of Pep19-2.5 and Pep19-4LF on the toxin (pathogenicity factor) FSL-1 (fibroblast-stimulating lipopeptide), a TLR-2/6 activating compound, was checked.
# as §1
# [4] = test system: open wound with wound infections (Staphylococcus aureus, Parvimonas micra, β-hemolysing Streptococcus, Pseudomonas aeruginosa); assay: Healing attempt, infected open wound of a patient, topical salve; assay type: in vivo; settings: for Effect on wound: topical
# From the text: A patient had—due to a cured tumor in the back—an open wound (see picture at t=0). […] Therefore, a conservative wound treatment was initiated. The wound's localization required the involvement of an ambulant nursing service who took over the daily care. Nevertheless, in sporadic intervals, wound infections occurred which inhibited the healing process. […] Over 6 years, all therapeutical approaches with different antibiotics and topically applied salve formulations failed. In November 2014 the patient was informed about the possibility of a, healing attempt′, to which they agreed. […] This therapeutically effect can be explained only from the use of the Aspidasept® salve, since all other parameters were not changed. The wound is now completely closed.
# keratinocyte migration = assay: Scratch assay, keratinocyte migration; assay type: cell-based
# Procedure: as §1
# [5] = test system: M. tuberculosis-induced TNF formation of human peripheral blood mononuclear cells; assay: M. tuberculosis supernatant-induced TNFα formation in human mononuclear cells (ELISA); assay type: cell-based; settings: for Inhibition of M. tuberculosis-induced TNF formation (in words): FIG. 5
# [6] = test system: Pseudomonas aeruginosa biofilm; assay: Inactivation of biofilm from Pseudomonas aeruginosa with GFP-labelled bacteria; assay type: cell-based; settings: short-time treatment (1 h), FIG. 2
# Procedure: FIG. 2: Inactivation of a biofilm from Pseudomonas aeruginosa with GFP-labelled bacteria (GFP: Green-Fluorescent Protein). Living bacteria: white, inactivated bacteria: dark.
# The micrographics shown that only a small fraction of the surface was covered by live bacteria forming a biofilm after 1 h (B) compared with the untreated one (A).
# [7] = test system: Pseudomonas aeruginosa PS4; assay: CDC Biofilm Reactor, inhibition of biofilm formation; assay type: cell-based; settings: with and without levofloxacin, 24 hours treatment, FIG. 8
# Procedure: The data shown in FIG. 8 were obtained in experiments carried out using the Center for Disease Control (CDC) Biofilm Reactor (CBR). In this case, clinical strain Pseudomonas aeruginosa PS4 was incubated in TSB under continuous shaking for 24 hours, followed by additional 24 hours growth with a flow of diluted TSB. Samples received treatments during another 24 hours dissolved at Phosphate Buffer at 37° C. Biofilms were scraped and serially diluted prior to plating and counting. For confocal microscopy, Biofilms were stained using Live/Death BacLight (Life technologies, Carlsbad, California, USA).
Compound,"MIC ([1]; individual agents, Mueller-Hinton medium) [µg/mL]",LPS-induced migration of MoDCs and CCR7 gene expression ([2]; FIG. 6),LPS-mediated upregulation of maturation marker CD83 and co-stimulatory molecule CD80 ([2]; peptide:LPS weight ratio of 1000:1),IL-8 release / IL-8 inducing activity of FSL-1 [3],Effect on wound ([4]; 0.1% in salve (DAC-base cream)),"Reduction of the diameter of the wound ([4]; 1% in salve, after 2 months) [%]","Wound healing ([4]; 1% in salve, after 6 months)",Effect on wound ([4]; 1% in salve),Concentration promoting cell migration and accelerating artificial wound closure (as low as) (keratinocyte migration) [ng/mL],Potency in promoting cell migration relative to TGF-β (keratinocyte migration),Inhibition of TNFα formation ([5]; 10 μg/ml peptide),Inhibition of M. tuberculosis-induced TNF formation (in words) [5],Inhibition of M. tuberculosis-induced TNF formation (in words) ([5]; listed as Pep19-2.5),MIC ([1]; ESBL (CUN E20)) [µg/mL],Inactivation of biofilm bacteria [6],Inhibition of biofilm formation [7]
"CO/N=C(\C(=O)N[C@@H]1C(=O)N2C(C(=O)O)=C(CSc3nc(=O)c(O)nn3C)CS[C@H]12)c1csc(N)n1 [Ceftriaxon, Ceftriaxone, reference compound]",16,,,,,,,,,,,,,,,
N=C(N)NCCC[C@H](NC(=O)[C@H](Cc1ccc(O)cc1)NC(=O)[C@H](CCCCN)NC(=O)[C@H](CCCCN)NC(=O)[C@H](CS)NC(=O)CN)C(=O)N[C@@H](CCCNC(=N)N)C(=O)N[C@@H](Cc1ccccc1)C(=O)N[C@@H](CCCNC(=N)N)C(=O)N[C@@H](Cc1c[nH]c2ccccc12)C(=O)N[C@@H](CCCCN)C(=O)N[C@@H](Cc1ccccc1)C(=O)N[C@@H](CCCCN)C(=O)NCC(=O)N[C@@H](CCCCN)C(=O)N[C@@H](Cc1ccccc1)C(=O)N[C@@H](Cc1c[nH]c2ccccc12)C(=O)N[C@@H](Cc1ccccc1)C(=O)N[C@@H](Cc1c[nH]c2ccccc12)C(=O)NCC(=O)O [Peptide 19-2.5],,completely blocked,inhibited,reduce IL-8 release,no effect,50,completely healed,significant effect,1,equipotent to TGF-β,more than 50%,Does dependent inhibition,strongest anti-TNFα activity,128,,
"GKKYRRFRWKFKGKLFLFG [Peptide 19-4LF, GKKYRRFRWKFKGKLFLFG]",,,,reduce IL-8 release,,,,,,,,,,16,most bacteria are inactivated,Inhibition of biofilm formation
